In one experiment the test system is DA1 gene. As to the kind of experiment: DA1 gene expression after phytohormone treatment, quantitative RT-PCR. The format is in vivo, Arabidopsis thaliana. The text has this: (§1) (A) DA1 gene structure, showing the mutated sites of da1-1, sod1-1, sod1-2, and sod1-3 alleles. The start codon (ATG) and the stop codon (TGA) are indicated. Closed boxes indicate the coding sequence and lines between boxes indicate introns. T-DNA insertion sites (da1-ko1, da1-ko2 and da1-ko3) in DA1 gene are shown. (B to G) DA1 promoter activity monitored by pDA1::GUS transgene expression. GUS staining in seedlings (B and C), an embryo (D), roots (E), and petals (F and G). (H and I) The flowers of Col-0 (H) and da1-ko1dar1-1 double mutant (I). (J) Siliques of Col-0 (left) and da1-ko1dar1-1 double mutant (right). (K) Petal area of Col-0, da1-ko1, dar1-1, da1-ko1dar1-1 double mutants. […] 7 d-old WT seedlings were treated with 10 μm ABA for 2, 4, 6, 18 and 30 hours. (M and N) Wild type Col-0 and da1-1 seeds were grown on MS medium with 2 μm ABA under constant light conditions. […] Scale bars: 1 mm (B, H, I, M, and N), 50 μm (C and E), 0.5 mm (C and J), 0.1 mm (F and G), 0.5 cm (0).
(§2) Relatively high levels of GUS activity were detected in proliferating tissues (FIG. 3c-f). In addition, the DA1 promoter is also active in roots (FIG. 3b, c). Given the effects of hormones on organ growth, we tested whether any major classes of phytohormones (abscisic acid, jasmonic acid, ethylene, auxin, cytokinin, gibberellin, brassinosteroids and glucose) could influence transcription of DA1 gene. […]

The test system of experiment [1] is wild type Col-0 seedlings. As to the kind of experiment: Seedling growth on MS medium with ABA, wild type. It is filed as in vivo, Arabidopsis thaliana. The settings on record: 4 d-old seedlings transferred to MS medium with 5 μm ABA for 3 weeks.
Excerpt: as §1

The next experiment deals with da1-1 mutant seedlings. The experiment in a line: Seedling establishment and growth on MS medium with ABA, da1-1 mutant. The format is in vivo, Arabidopsis thaliana.
Excerpt: as §1, §2

The next experiment relates to proteasome. The experiment in a line: Stability of DA1 protein in cell-free Arabidopsis protein extracts with ATP, Western analysis. The format is biochemical. The settings on record: GST-DA1 incubated with Arabidopsis protein extracts and ATP; Western with DA1 antibody. As to the method: This is supported by the observation that detection of DA1 protein with a good specific antibody in plant extracts is very difficult. We therefore tested the stability of DA1 protein in Arabidopsis using DA1 protein expressed in E. coli and cell-free protein extracts from Arabidopsis. Full length DA1 protein expressed and purified as an N-terminal GST fusion protein, was incubated with Arabidopsis protein extracts and ATP, and subjected to Western analysis using a specific DA1 antibody. […] The UIM motifs of DA1 are predicted, based on knowledge of UIM function in animal cells, to be involved in ubiqutination. It may be that DA1 is ubiquitinated and targeted for degradation as part of the mechanism of growth control.

Where a SMILES comes first, the peptide text is derived from it. The star is where a group is joined. Cbz = O=C(OCc1ccccc1)*

As to `CC1=CC(=O)CC(C)(C)[C@@]1(O)/C=C/C(C)=C\C(=O)O` [ABA, abscisic acid], in the experiment on DA1 gene (7 d-old WT seedlings treated with 10 μm ABA for 2, 4, 6, 18 and 30 hours, quantitative RT-PCR), the “expression of DA1” value was “slowly induced”. Moreover, the “expression level of the DA1 gene (transcription) after phytohormone treatment” value with DA1 gene (major classes of phytohormones tested) is recorded as “induced slowly”. In addition, the “growth of wild type Col-0 seedlings” value in experiment [1] is reported as “inhibit the growth”. Besides, the “growth of da1-1 mutant seedlings” value with da1-1 mutant seedlings (4 d-old seedlings transferred to MS medium with 5 μm ABA for 3 weeks) was “continue to grow”. The “seedling establishment of da1-1 mutant” value with da1-1 mutant seedlings (seeds grown on MS medium with 2 μm ABA under constant light) is listed as “ABA-insensitive seedling establishment”.
On to `CC(C)C[C@@H](C=O)NC(=O)[C@H](CC(C)C)NC(=O)[C@H](CC(C)C)NC(=O)OCc1ccccc1` [MG132] (Cbz-Leu-Leu-Leu-aldehyde), for which the “effect on degradation of DA1 protein” value in the experiment with proteasome was “abolish this degradation”.
